Reference: patent US20240309014A1, “MACROCYCLIC COMPOUNDS AND USES THEREOF” (President and Fellows of Harvard College, priority 2017, published 2024)

Legend:
[1] = system: human lung cancer cell line NCI-H23; test: NCI-H23 growth inhibition assay; type: cell-based; conditions: NCI-H23, 72 h, 3 days incubation, CellTiter-Glo
Description: (§1) In this assay, the growth inhibitory activities of Compound D-6 (Example 26), E-2, G-4, H-2, 1-2, J-1, K-2, L-6, M-3, and N-1 in a human lung cancer cell line NCI-H23 were measured. NCI-H23 cells were maintained in RPM-1640 (Wako Pure Chemical Industries, Ltd., 187-02021) medium containing 10% fetal bovine serum (FBS: Sigma, 172012), and penicillin and streptomycin (Wako Pure Chemical Industries, Ltd., 168-23191) in a 5% CO2 incubator (37° C.). To each well of a 96 well plate (Becton, Dickinson and Company, 353219), 75 μL of NCI-H23 cell suspension adjusted to a concentration of 4×10^4 cells/mL with the culture medium was added, and the cells were incubated overnight in a 5% CO2 incubator (37° C.). On the next day, 25 μL of each compound in three-fold dilution series suspended in the culture medium was added to each well, and the resultant was incubated for 3 days in a 5% CO2 incubator (37° C.). Then, cell viability was determined by CellTiter-Glo® Luminescent Cell Viability Assay (Promega) with EnVision 2103 Multilabel Reader (Perkin-Elmer, Wellesley, MA). Value of the wells containing cells without adding the test substance was defined as 100% and the value of the wells containing no cells was defined as 0%. The concentration of the test substance necessary for inhibiting the cell growth by 50% (i.e., an IC50 value) was calculated, and summarized in Table 14.

[2] = system: human breast cancer cell line HCC1954; test: HCC1954 growth inhibition assay (Test Example 24); type: cell-based; conditions: HCC1954, 72 h, 3 days incubation, CellTiter-Glo
Description: In this assay, the growth inhibitory activities of Compound D-6 (Example 26), E-2, G-4, H-2, I-2, J-1, K-2, L-6, M-3, and N-1 in a human breast cancer cell line HCCl954 were measured. HCC1954 cells were maintained in RPMI-1640 medium modified to contain 2 mM L-glutamine, 10 mM HEPES, 1 mM sodium pyruvate, 4500 mg/L glucose, and 1500 mg/L sodium bicarbonate (ATCC 30-2001) containing 10% fetal bovine serum (FBS: Sigma, 172012), and penicillin and streptomycin (Wako Pure Chemical Industries, Ltd., 168-23191) in a 5% CO2 incubator (37° C.). To each well of a 96 well plate (Becton, Dickinson and Company, 353219), 75 μL of HCC1954 cell suspension adjusted to a concentration of 4×10^4 cells/mL with the culture medium was added, and the cells were incubated overnight in a 5% CO2 incubator (37° C.). On the next day, 25 μL of each compound in three-fold dilution series suspended in the culture medium was added to each well, and the resultant was incubated for 3 days in a 5% CO2 incubator (37° C.). Then, cell viability was determined by CellTiter-Glo® Luminescent Cell Viability Assay (Promega) with EnVision 2103 Multilabel Reader (Perkin-Elmer, Wellesley, MA). Value of the wells containing cells without adding the test substance was defined as 100% and the value of the wells containing no cells was defined as 0%. The concentration of the test substance necessary for inhibiting the cell growth by 50% (i.e., an IC50 value) was calculated, and summarized in Table 14.

MES-SA cells = test: MES-SA growth inhibition assay; type: cell-based; conditions: Homo sapiens, 72 h, 3 days incubation, CellTiter-Glo, read-out: Cell growth inhibition IC50 (nM) MES-SA
Description: as §1, with “MES-SA” for “NCI-H23”

[3] = in vitro and in vivo; cited from earlier work
[4] = system: HSC-2-Luc inoculated into tongue; test: HSC-2 orthotopic transplantation mouse model; type: in vivo, nude mice; conditions: Compound (1) 0.09 mg/kg
[5] = in comparison with Halichondrin B; cited from earlier work

Row | Structure (SMILES) | IC50 [1] [nM] | IC50 [2] [nM] | IC50 (MES-SA cells) [nM] | activity relative to Halichondrin B [3] | ILS (%) ([4]; single agent, Q7Dx3: cetuximab 5 mg/kg, cisplatin 5 mg/kg) | ILS (%) ([4]; with cetuximab 5 mg/kg, Q7Dx3: cisplatin 5 mg/kg) | stability in aqueous solution [5]
1 | C=C1C[C@@H]2CC[C@@]34C[C@@]5(O)O[C@H]6[C@@H](O3)[C@H]3O[C@H](CC[C@@H]3O[C@H]6[C@H]5O4)CC(=O)O[C@@H]3[C@@H](C)[C@@H]4O[C@@H]5C[C@]6(C[C@@H]7O[C@]8(C[C@H](C)[C@@H]9O[C@H]([C@@H](O)C[C@@H](O)CN)C[C@@H]9O8)C[C@H](C)[C@@H]7O6)O[C@@H]5C[C@@H]4O[C@H]3C[C@H]3O[C@@H](CC[C@@H]1O2)C[C@@H](C)C3=C [Compound L-6] | 6.81 | 0.269 | 2.79 | – | – | – | –
2 | C=C1C[C@@H]2CC[C@@]34CC5O[C@H]6[C@@H](O3)[C@H]3O[C@H](CC[C@@H]3O[C@H]6C5O4)CC(=O)O[C@@H]3[C@@H](C)[C@@H]4O[C@@H]5C[C@]6(C[C@@H]7O[C@]8(C[C@H](C)[C@@H]9O[C@H]([C@@H](O)C[C@@H](O)CN)C[C@@H]9O8)C[C@H](C)[C@@H]7O6)O[C@@H]5C[C@@H]4O[C@H]3C[C@H]3O[C@@H](CC[C@@H]1O2)C[C@@H](C)C3=C [Compound K-2] | 0.461 | 0.07 | 0.341 | – | – | – | –
3 | C=C1C[C@@H]2CC[C@@]34CC5O[C@H]6[C@@H](O3)[C@H]3O[C@H](CC[C@@H]3O[C@H]6C5O4)CC(=O)O[C@@H]3[C@@H](C)[C@@H]4O[C@@H]5C[C@]6(C[C@@H]7O[C@]8(C[C@H](C)[C@@H]9O[C@H](CCO)[C@H](O)C[C@@H]9O8)C[C@H](C)[C@@H]7O6)O[C@@H]5C[C@@H]4O[C@H]3C[C@H]3O[C@@H](CC[C@@H]1O2)C[C@@H](C)C3=C [Compound E-2] | 0.595 | 0.0805 | 0.856 | – | – | – | –
4 | C=C1C[C@@H]2CC[C@@]34C[C@H]5O[C@H]6[C@@H](O3)[C@H]3O[C@H](CC[C@@H]3O[C@H]6[C@H]5O4)CC(=O)O[C@@H]3[C@@H](C)[C@@H]4O[C@@H]5C[C@]6(CC7O[C@@]8(C[C@H](C)C7O6)C[C@H](C)[C@@H]6O[C@H](CC(=O)O)[C@H](O)C[C@@H]6O8)O[C@@H]5CC4O[C@H]3C[C@H]3O[C@@H](CC[C@@H]1O2)C[C@@H](C)C3=C (stereo partly shown) [Norhalichondrin B] | – | – | – | much weaker than Halichondrin B | – | – | –
5 | C=C1C[C@@H]2CC[C@@]34C[C@]5(O)O[C@H]6[C@@H](O3)[C@H]3O[C@H](CC[C@@H]3O[C@H]6C5O4)CC(=O)O[C@@H]3[C@@H](C)[C@@H]4O[C@@H]5C[C@]6(C[C@@H]7O[C@]8(C[C@H](C)[C@@H]9O[C@H](CCO)[C@H](O)C[C@@H]9O8)C[C@H](C)[C@@H]7O6)O[C@@H]5C[C@@H]4O[C@H]3C[C@H]3O[C@@H](CC[C@@H]1O2)C[C@@H](C)C3=C [Compound J-1] | 0.00992 | 0.00308 | 0.0102 | – | – | – | –
6 | C=C1C[C@@H]2CC[C@@]34CC5O[C@H]6[C@@H](O3)[C@H]3O[C@H](CC[C@@H]3O[C@H]6C5O4)CC(=O)O[C@@H]3[C@@H](C)[C@@H]4O[C@@H]5C[C@]6(C[C@@H]7O[C@]8(C[C@H](C)[C@@H]9O[C@H](CO)[C@H](O)C[C@@H]9O8)C[C@H](C)[C@@H]7O6)O[C@@H]5C[C@@H]4O[C@H]3C[C@H]3O[C@@H](CC[C@@H]1O2)C[C@@H](C)C3=C [Compound D-6] | 0.022 | 0.0104 | 0.0138 | – | – | – | –
7 | C=C1C[C@@H]2CC[C@@]34CC5O[C@H]6[C@@H](O3)[C@H]3O[C@H](CC[C@@H]3O[C@H]6C5O4)CC(=O)O[C@@H]3[C@@H](C)[C@@H]4O[C@@H]5C[C@]6(C[C@@H]7O[C@]8(C[C@H](C)[C@@H]9O[C@H]([C@@H](O)CCO)C[C@@H]9O8)C[C@H](C)[C@@H]7O6)O[C@@H]5C[C@@H]4O[C@H]3C[C@H]3O[C@@H](CC[C@@H]1O2)C[C@@H](C)C3=C [Compound M-3] | 0.0199 | 0.0101 | 0.0141 | – | – | – | –
8 | C=C1C[C@@H]2CC[C@@]34CC5O[C@H]6[C@@H](O3)[C@H]3O[C@H](CC[C@@H]3O[C@H]6C5O4)CC(=O)O[C@@H]3[C@@H](C)[C@@H]4O[C@@H]5C[C@]6(C[C@@H]7O[C@]8(C[C@H](C)[C@@H]9O[C@H](CCOC)[C@H](O)C[C@@H]9O8)C[C@H](C)[C@@H]7O6)O[C@@H]5C[C@@H]4O[C@H]3C[C@H]3O[C@@H](CC[C@@H]1O2)C[C@@H](C)C3=C [Compound I-2] | 0.103 | 0.00624 | 0.057 | – | – | – | –
9 | C=C1C[C@@H]2CC[C@@]34C[C@H]5O[C@H]6[C@@H](O3)[C@H]3O[C@H](CC[C@@H]3O[C@H]6[C@H]5O4)CC(=O)O[C@@H]3[C@@H](C)[C@@H]4O[C@@H]5C[C@]6(C[C@@H]7O[C@]8(C[C@H](C)[C@@H]9O[C@H](CCN)[C@H](O)C[C@@H]9O8)C[C@H](C)[C@@H]7O6)O[C@@H]5C[C@@H]4O[C@H]3C[C@H]3O[C@@H](CC[C@@H]1O2)C[C@@H](C)C3=C [Compound G-4] | 0.136 | 0.0335 | 0.326 | – | – | – | –
10 | C=C1C[C@@H]2CC[C@@]34CC5O[C@H]6[C@@H](O3)[C@H]3O[C@H](CC[C@@H]3O[C@H]6C5O4)CC(=O)O[C@@H]3[C@@H](C)[C@@H]4O[C@@H]5C[C@]6(C[C@@H]7O[C@]8(C[C@H](C)[C@@H]9O[C@H]([C@@H](O)CCN)C[C@@H]9O8)C[C@H](C)[C@@H]7O6)O[C@@H]5C[C@@H]4O[C@H]3C[C@H]3O[C@@H](CC[C@@H]1O2)C[C@@H](C)C3=C [Compound N-1] | 1.53 | 0.08 | 2.88 | – | – | – | –
11 | N.N.[Cl][Pt][Cl] [Cisplatin, cisplatin, reference compound] | – | – | – | – | 0 | 150 | –
12 | C=C1C[C@@H]2CC[C@@]34C[C@@]5(O)O[C@H]6[C@@H](O3)[C@H]3O[C@H](CC[C@@H]3O[C@H]6[C@H]5O4)CC(=O)O[C@@H]3[C@@H](C)[C@@H]4O[C@@H]5C[C@]6(C[C@@H]7O[C@]8(C[C@H](C)[C@@H]9O[C@H]([C@@H](O)C[C@@H](O)CO)C[C@@H]9O8)C[C@H](C)[C@@H]7O6)O[C@@H]5C[C@@H]4O[C@H]3C[C@H]3O[C@@H](CC[C@@H]1O2)C[C@@H](C)C3=C [Halichondrin C] | – | – | – | – | – | – | unstable in aqueous solution in comparison with Halichondrin B
